Reference: patent publication US8962844B2, “1,3,4-oxadiazole and 1,3,4-thiadiazole β-lactamase inhibitors” (priority 2012, dated 2015)
Where a name gives a salt, the structure may show the parent alone.

How the values were obtained:
[1] = test system: bacterial strains that express KPC β-lactamases; test: Standard BLI potentiation MIC / synergy MIC (sMIC) assays run in the presence of a β-lactam, KPC expressing strains; type: cell-based; details: more active for at least one KPC strain and/or better spectrum of activity than Avibactam; BLI in combination with a β-lactam
Method in brief: (§1)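 Isogenic E. coli DH10B carrying cloned β-lactamase genes on pBR322-derived plasmid (blaTEM-1 promoter, tetracycline 25 μg/mL) tested by CLSI broth microdilution in CAMHB. Test compound and β-lactam each diluted and combined; MIC reported in presence of β-lactam.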

[2] = test system: bacterial strains that express the class D cephalosporinase OXA-15; test: Standard BLI potentiation MIC / synergy MIC (sMIC) assays run in the presence of a β-lactam, OXA-15 expressing strains; type: cell-based, E. coli; details: BLI in combination with a β-lactam; comparison with Avibactam (comparator compound CCC)
Method in brief: as §1

Structure (SMILES) | activity and/or spectrum of activity against bacterial strains that express KPC β-lactamases, compared with Avibactam [1] | activity against bacterial strains that express the class D cephalosporinase OXA-15, compared with Avibactam [2]
C[n+]1ccc(-c2nnc([C@@H]3CC[C@@H]4CN3C(=O)N4OS(=O)(=O)[O-])o2)cc1 [Compound 782, (2S,5R)-2-(5-(1-methylpyridin-1-ium-4-yl)-1,3,4-oxadiazol-2-yl)-7-oxo-1,6-diazabicyclo[3.2.1]octan-6-yl sulfate] | more active than Avibactam | more active than Avibactam
N[C@H]1CC[C@@H](c2nnc([C@@H]3CC[C@@H]4CN3C(=O)N4OS(=O)(=O)O)o2)C1 [Compound 768, (2S,5R)-2-(5-((1R,3S)-3-aminocyclopentyl)-1,3,4-oxadiazol-2-yl)-7-oxo-1,6-diazabicyclo[3.2.1]octan-6-yl hydrogen sulfate] | more active than Avibactam | more active than Avibactam
N=C(N)NCCc1nnc([C@@H]2CC[C@@H]3CN2C(=O)N3OS(=O)(=O)O)o1 [Compound 705, (2S,5R)-2-(5-(2-guanidinoethyl)-1,3,4-oxadiazol-2-yl)-7-oxo-1,6-diazabicyclo[3.2.1]octan-6-yl hydrogen sulfate] | more active than Avibactam | more active than Avibactam
NCCCc1nnc([C@@H]2CC[C@@H]3CN2C(=O)N3OS(=O)(=O)O)o1 [Compound 720, (2S,5R)-2-(5-(3-aminopropyl)-1,3,4-oxadiazol-2-yl)-7-oxo-1,6-diazabicyclo[3.2.1]octan-6-yl hydrogen sulfate] | more active than Avibactam | more active than Avibactam
CNCCCc1nnc([C@@H]2CC[C@@H]3CN2C(=O)N3OS(=O)(=O)O)o1 [Compound 734, (2S,5R)-2-(5-(3-(methylamino)propyl)-1,3,4-oxadiazol-2-yl)-7-oxo-1,6-diazabicyclo[3.2.1]octan-6-yl hydrogen sulfate] | more active than Avibactam | more active than Avibactam
N[C@H]1C[C@H](Cc2nnc([C@@H]3CC[C@@H]4CN3C(=O)N4OS(=O)(=O)O)o2)C1 [Compound 751, (2S,5R)-2-(5-(((1r,3S)-3-aminocyclobutyl)methyl)-1,3,4-oxadiazol-2-yl)-7-oxo-1,6-diazabicyclo[3.2.1]octan-6-yl hydrogen sulfate] | more active than Avibactam | more active than Avibactam
N=C(N)NCC1(c2nnc([C@@H]3CC[C@@H]4CN3C(=O)N4OS(=O)(=O)O)o2)CC1 [Compound 723, (2S,5R)-2-(5-(1-(guanidinomethyl)cyclopropyl)-1,3,4-oxadiazol-2-yl)-7-oxo-1,6-diazabicyclo[3.2.1]octan-6-yl hydrogen sulfate] | more active than Avibactam | more active than Avibactam
O=C1N2C[C@@H](CC[C@H]2c2nnc(C3CCNC3)o2)N1OS(=O)(=O)O (stereo partly drawn) [Compound 710, (2S,5R)-7-oxo-2-(5-(pyrrolidin-3-yl)-1,3,4-oxadiazol-2-yl)-1,6-diazabicyclo[3.2.1]octan-6-yl hydrogen sulfate] | more active than Avibactam | more active than Avibactam
N=C(N)NC1(Cc2nnc([C@@H]3CC[C@@H]4CN3C(=O)N4OS(=O)(=O)O)o2)CC1 [Compound 739, (2S,5R)-2-(5-((1-guanidinocyclopropyl)methyl)-1,3,4-oxadiazol-2-yl)-7-oxo-1,6-diazabicyclo[3.2.1]octan-6-yl hydrogen sulfate] | more active than Avibactam | more active than Avibactam
O=C1N2C[C@@H](CC[C@H]2c2nnc(CCNCCO)o2)N1OS(=O)(=O)O [Compound 736, (2S,5R)-2-(5-(2-((2-hydroxyethyl)amino)ethyl)-1,3,4-oxadiazol-2-yl)-7-oxo-1,6-diazabicyclo[3.2.1]octan-6-yl hydrogen sulfate] | more active than Avibactam | more active than Avibactam
O=C1N2C[C@@H](CC[C@H]2c2nnc(CNC3CNC3)o2)N1OS(=O)(=O)O [Compound 726, (2S,5R)-2-(5-((azetidin-3-ylamino)methyl)-1,3,4-oxadiazol-2-yl)-7-oxo-1,6-diazabicyclo[3.2.1]octan-6-yl hydrogen sulfate] | more active than Avibactam | more active than Avibactam
N=C(N)N1CC(NCc2nnc([C@@H]3CC[C@@H]4CN3C(=O)N4OS(=O)(=O)O)o2)C1 [Compound 746, (2S,5R)-2-(5-(((1-carbamimidoylazetidin-3-yl)amino)methyl)-1,3,4-oxadiazol-2-yl)-7-oxo-1,6-diazabicyclo[3.2.1]octan-6-yl hydrogen sulfate] | more active than Avibactam | more active than Avibactam
O=C1N2C[C@@H](CC[C@H]2c2nnc(CCCNC3CCNCC3)o2)N1OS(=O)(=O)O [Compound 771, (2S,5R)-7-oxo-2-(5-(3-(piperidin-4-ylamino)propyl)-1,3,4-oxadiazol-2-yl)-1,6-diazabicyclo[3.2.1]octan-6-yl hydrogen sulfate] | more active than Avibactam | more active than Avibactam
N=C1NCC(c2nnc([C@@H]3CC[C@@H]4CN3C(=O)N4OS(=O)(=O)O)o2)N1 (stereo partly drawn) [Compound 767, (2S,5R)-2-(5-(2-iminoimidazolidin-4-yl)-1,3,4-oxadiazol-2-yl)-7-oxo-1,6-diazabicyclo[3.2.1]octan-6-yl hydrogen sulfate] | more active than Avibactam | more active than Avibactam
NC1CCN(Cc2nnc([C@@H]3CC[C@@H]4CN3C(=O)N4OS(=O)(=O)O)o2)CC1 [Compound 774, (2S,5R)-2-(5-((4-aminopiperidin-1-yl)methyl)-1,3,4-oxadiazol-2-yl)-7-oxo-1,6-diazabicyclo[3.2.1]octan-6-yl hydrogen sulfate] | more active than Avibactam | more active than Avibactam
O=C1N2C[C@@H](CC[C@H]2c2nnc(C3CC4(CNC4)C3)o2)N1OS(=O)(=O)O [Compound 750, (2S,5R)-2-(5-(2-azaspiro[3,3]heptan-6-yl)-1,3,4-oxadiazol-2-yl)-7-oxo-1,6-diazabicyclo[3.2.1]octan-6-yl hydrogen sulfate] | more active than Avibactam | more active than Avibactam
N[C@H]1C[C@H](c2nnc([C@@H]3CC[C@@H]4CN3C(=O)N4OS(=O)(=O)O)s2)C1 [Compound 783, (2S,5R)-2-(5-((1r,3S)-3-aminocyclobutyl)-1,3,4-thiadiazol-2-yl)-7-oxo-1,6-diazabicyclo[3.2.1]octan-6-yl hydrogen sulfate] | more active than Avibactam | more active than Avibactam
N=C(N)NCc1nnc([C@@H]2CC[C@@H]3CN2C(=O)N3OS(=O)(=O)O)s1 [Compound 721, (2S,5R)-2-(5-(guanidinomethyl)-1,3,4-thiadiazol-2-yl)-7-oxo-1,6-diazabicyclo[3.2.1]octan-6-yl hydrogen sulfate] | more active than Avibactam | more active than Avibactam
O=C1N2C[C@@H](CC[C@H]2c2nnc(CC3CCNC3)o2)N1OS(=O)(=O)O (stereo partly drawn) [Compound 764, (2S,5R)-7-oxo-2-(5-(pyrrolidin-3-ylmethyl)-1,3,4-oxadiazol-2-yl)-1,6-diazabicyclo[3.2.1]octan-6-yl hydrogen sulfate] | more active than Avibactam | more active than Avibactam
O=C1N2C[C@@H](CC[C@H]2c2nnc(C3CCNCC3)o2)N1OS(=O)(=O)O [Compound 711, (2S,5R)-7-oxo-2-(5-(piperidin-4-yl)-1,3,4-oxadiazol-2-yl)-1,6-diazabicyclo[3.2.1]octan-6-yl hydrogen sulfate] | more active than Avibactam | more active than Avibactam
